Format in all cases: cell-based
The subject of assay [1] is HIV variant E92Q/N155H integrase. In words: PhenoScreen (Phenosense) assay, single-round luciferase pseudotyped HIV. To be noted: Human immunodeficiency virus 1, read-out: Activity, Phenosense assay, E92Q/N155H. The source says:
(§1) Monogram Bioscience' PhenoScreen assay allows the evaluation of integrase inhibitors for activity against a variety of HIV variants. The assay uses virus generated from 2 DNA constructs; one containing the HIV LTR, gag and pol regions, as well as a luciferase reporter gene in place of the viral envelope genes, and a second DNA construct containing the amphotrophic murine leukemia virus (A-MLV) envelope gene required to pseudotype virions and render them capable of entry into a target cell. Viruses generated using these constructs by transfection into a producer cell line such as 293T are capable of one-round of infection only. Successful integration events are directly proportional to the levels of luciferase expression 48 h after infection.
(§2) The viral variants chosen by the present inventors to screen integration inhibitors consist of mutations within the viral integrase enzyme known to confer resistance to a number of known integration inhibitors published in the literature. In particular, the viral variants containing the Q148H/G140S double mutation in integrase, and the N155H/E92Q double mutation in integrase, represent two of the more common viruses identified to arise in patients that are failing treatment with Isentress (Raltegravir, MK-0518).

The test system of the next assay is HIV WT integrase. The assay is described as above. To be noted: Human immunodeficiency virus 1, read-out: Activity, Phenosense assay, WT.
Source text: as §1, §2

The subject of assay [2] is HIV variant G140S/Q148H integrase. Described as above. To be noted: Human immunodeficiency virus 1, read-out: Activity, Phenosense assay, G140S Q148H.
Source text: as §1, §2

Assay [3] concerns HIV variant Y143R integrase. The assay is described as above. To be noted: Human immunodeficiency virus 1, read-out: Activity, Phenosense assay, Y143R.
Source text: as §1, §2

Assay [4] has as its system HIV variant T125K/F121Y integrase. The description is as above. As to conditions: Human immunodeficiency virus 1, read-out: Activity, Phenosense assay, T125K F121Y.
Source text: as §1, §2

Assay [5] concerns HIV variant T661/S153Y integrase. The assay is described as above. To be noted: Human immunodeficiency virus 1, read-out: Activity, Phenosense assay, T661 S153Y.
Source text: as §1, §2

For assay [6], the system named is HIV-1 reporter virus, Q148H/G140S (QHGS) integrase. Nature of the assay: Luciferase reporter virus infectivity assay in 293T cells. To be noted: Human immunodeficiency virus 1, HEK-293T, 48 h, read-out: Luciferase assay EC50, QHGS. The source says:
(§3) Infectivity assays using reporter viruses derived from lentiviral vectors capable of a single round of infection were used to determine the activity (EC50) of compounds. The DNA used to generate viruses for infection was the full-length HIV-1 genome which had been envelope-deleted. In addition, a reporter gene (the firefly luciferase gene from Photinus pyralis) was cloned into the nef region of the HIV backbone for ease of assay readout. […]. Culture supernatants containing VSV-G pseudotyped virions were harvested 64 h post transfection, clarified by centrifugation to remove cell debris, and frozen at −70° C. until use.
(§4) HIV integrase was mutated within a shuttle vector (pGEM) containing the majority of the HIV-1 gag and pol sequence using site-directed mutagenesis to generate sequences that are known to confer resistance to published integrase inhibitors. These include but are not limited to mutations such as Q148H/G140S (in table #QHGS), N155H/E92Q (in table #NHEQ), F121Y/T124K (in table FYTK), Y143R (in table #Y143R) and the triple mutant Q148K/G140A/E138A. (in table#QKGAEA). The mutated integrase coding region within the shuttle vector was sequence verified, and then exchanged for the wild-type (WT) coding sequence in the reporter virus DNA backbone.
(§5) 293T cells were plated out at 12000 cells per well in CellView 96-well cell culture plates (Invitrogen) 16 h prior to compound addition. Compounds were preincubated with cells for 4 h at 37° C. prior to the addition of virus sufficient to generate approximately 10000 Luciferase light units (as measured by the Victor Wallace luminometer) upon assaying using the Bright-Glo™ reagent (Promega) according to the manufacturer's instructions at 48 h post infection.

Assay [7] concerns HIV-1 reporter virus, Q148K/G140A/E138A (QKGAEA) integrase. The description is as above. As to conditions: Human immunodeficiency virus 1, HEK-293T, 48 h, read-out: Luciferase assay EC50, QKGAEA.
Source text: as §3, §4, §5

Assay [8] concerns HIV-1 reporter virus, Y143R integrase. The assay is described as above. As to conditions: Human immunodeficiency virus 1, HEK-293T, 48 h, read-out: Luciferase assay EC50, Y143R.
Source text: as §3, §4, §5

The test system of assay [9] is HIV-1 reporter virus, wild-type (WT) integrase. Described as above. To be noted: Human immunodeficiency virus 1, HEK-293T, 48 h, read-out: Luciferase assay EC50, WT.
Source text: as §3, §4, §5

For assay [10], the system named is HIV-1 reporter virus, N155H/E92Q (NHEQ) integrase. The description is as above. To be noted: Human immunodeficiency virus 1, HEK-293T, 48 h, read-out: Luciferase assay EC50, NHEQ.
Source text: as §3, §4, §5

Consider `O=C(NCc1ccc(Cl)c(Cl)c1)c1nc2ccc(N3CCOCC3)cn2c(=O)c1O` [Comparative example 1, reference compound], for which the EC50 in assay [1] was over 10 µM; with HIV WT integrase, 0.001 to 0.1 µM; in [2] it was over 10 µM.
For `Cc1ccc2nc(-c3ncc(Cc4ccc(F)cc4)s3)c(O)c(=O)n2c1` [Comparative example 2, reference compound], the EC50 was in the range of 0.1 to 1 µM in [3]; 0.1 to 1 µM in assay [4]; 1 to 10 µM in assay [1]; 0.1 to 1 µM in the assay with HIV WT integrase; 1 to 10 µM in assay [2]; 0.1 to 1 µM in assay [5].
For the compound `O=c1c(O)c(-c2ncc(Cc3ccc(F)cc3)[nH]2)nc2c(Br)cc(N3CCOCC3)cn12` [Example 47, 2-(9-Bromo-3-hydroxy-7-morpholin-4-yl-4-oxo-4H-pyrido[1,2-a]pyrimidin-2-yl)-5-(4-fluoro-benzyl)-1H-imidazol-1-ium chloride], the EC50 in assay [6] lay within 0.1 to 1 µM.
For the compound `CC(=O)c1cc(N2CCOCC2)cn2c(=O)c(O)c(-c3ncc(Cc4ccc(F)cc4)s3)nc12` [Example 53, 9-Acetyl-2-[5-(4-fluoro-benzyl)-thiazol-2-yl]-3-hydroxy-7-morpholin-4-yl-pyrido[1,2-a]pyrimidin-4-one], the EC50 in assay [6] fell in the range of 0.1 to 1 µM.
As to `CC(C)N1CCN(c2cc(N3CCOCC3)cn3c(=O)c(O)c(-c4ncc(Cc5ccc(F)cc5)s4)nc23)C1=O` [Example 56, 2-[5-(4-Fluoro-benzyl)-thiazol-2-yl]-3-hydroxy-9-(3-isopropyl-2-oxo-imidazolidin-1-yl)-7-morpholin-4-yl-pyrido[1,2-a]pyrimidin-4-one], the EC50 in assay [7], in assay [6], in assay [8], in assay [9] and in [10] was 0.001 to 0.1 µM in each case.
`CN1CCN(c2cc(N3CCOCC3)cn3c(=O)c(O)c(-c4ncc(Cc5ccc(F)c(Cl)c5)s4)nc23)C1=O` [Example 60, 2-[5-(3-Chloro-4-fluoro-benzyl)-thiazol-2-yl]-3-hydroxy-9-(3-methyl-2-oxo-imidazolidin-1-yl)-7-morpholin-4-yl-pyrido[1,2-a]pyrimidin-4-one]: the EC50 in assay [7], in assay [6], in assay [8], in assay [9] and in assay [10] was 0.001 to 0.1 µM each time.
Consider `CN1CCN(c2cc(N(C)C)cn3c(=O)c(O)c(-c4ncc(Cc5ccc(F)cc5)s4)nc23)C1=O` [Example 70, 7-Dimethylamino-2-[5-(4-fluoro-benzyl)-thiazol-2-yl]-3-hydroxy-9-(3-methyl-2-oxo-imidazolidin-1-yl)-pyrido[1,2-a]pyrimidin-4-one], for which the EC50 in assay [6], in assay [9] and in assay [10] was 0.001 to 0.1 µM throughout.
In the case of `CN1CCN(c2cc(N(C)C)cn3c(=O)c(O)c(-c4ncc(Cc5ccc(F)cc5)[nH]4)nc23)C1=O` [Example 72, 2-(7-(dimethylamino)-3-hydroxy-9-(3-methyl-2-oxoimidazolidin-1-yl)-4-oxo-4H-pyrido[1,2-a]pyrimidin-2-yl)-5-(4-fluorobenzyl)-1H-imidazol-3-ium chloride], the EC50 in assay [6] was 0.1 to 1 µM.
As for `CN1CCN(c2cc(N3CCOCC3)cn3c(=O)c(O)c(-c4ncc(Cc5ccc(F)c(Cl)c5)[nH]4)nc23)C1=O` [Example 77, 5-(3-chloro-4-fluorobenzyl)-2-(3-hydroxy-9-(3-methyl-2-oxoimidazolidin-1-yl)-7-morpholino-4-oxo-4H-pyrido[1,2-a]pyrimidin-2-yl)-1H-imidazol-3-ium chloride], the EC50 in assay [6] is 0.1 to 1 µM; in [9], 0.001 to 0.1 µM; in assay [10], 0.001 to 0.1 µM.
Consider `CN1CCN(c2cc(N3CCOCC3)cn3c(=O)c(O)c(-c4ncc(Cc5ccc(F)c(F)c5)[nH]4)nc23)C1=O` [Example 79, 5-(3,4-difluorobenzyl)-2-(3-hydroxy-9-(3-methyl-2-oxoimidazolidin-1-yl)-7-morpholino-4-oxo-4H-pyrido[1,2-a]pyrimidin-2-yl)-1H-imidazol-3-ium chloride], for which the results for the EC50 in assay [6], in assay [9] and in assay [10] were 0.1 to 1 µM, 0.001 to 0.1 µM and 0.001 to 0.1 µM, respectively.
With `O=C1CCCN1c1cc(N2CCOCC2)cn2c(=O)c(O)c(-c3ncc(Cc4ccc(F)cc4)[nH]3)nc12` [Example 83, 5-(4-fluorobenzyl)-2-(3-hydroxy-7-morpholino-4-oxo-9-(2-oxopyrrolidin-1-yl)-4H-pyrido[1,2-a]pyrimidin-2-yl)-1H-imidazol-3-ium chloride], the EC50 in assay [6] was in the range of 0.1 to 1 µM.
For `O=C1OCCN1c1cc(N2CCOCC2)cn2c(=O)c(O)c(-c3ncc(Cc4ccc(F)cc4)[nH]3)nc12` [Example 87, 5-(4-fluorobenzyl)-2-(3-hydroxy-7-morpholino-4-oxo-9-(2-oxooxazolidin-3-yl)-4H-pyrido[1,2-a]pyrimidin-2-yl)-1H-imidazol-3-ium chloride], the EC50 in assay [6] was in the range of 0.1 to 1 µM.
Regarding `CN1CCN(c2cc(N3CCOCC3)cn3c(=O)c(O)c(-c4ncc(Cc5ccc(F)cc5)[nH]4)nc23)S1(=O)=O` [Example 91, 4-(4-Fluoro-benzyl)-2-[3-hydroxy-9-(5-methyl-1,1-dioxo-116-[1,2,5]thiadiazolidin-2-yl)-7-morpholin-4-yl-4-oxo-4H-pyrido[1,2-a]pyrimidin-2-yl]-3H-imidazol-1-ium; chloride], the EC50 in assay [6], in [9] and in assay [10] was 0.001 to 0.1 µM in each case.
`CN(c1cc(N2CCOCC2)cn2c(=O)c(O)c(-c3ncc(Cc4ccc(F)cc4)[nH]3)nc12)S(C)(=O)=O` [Example 95, 5-(4-fluorobenzyl)-2-(3-hydroxy-9-(N-methylmethylsulfonamido)-7-morpholino-4-oxo-4H-pyrido[1,2-a]pyrimidin-2-yl)-1H-imidazol-3-ium chloride]: the EC50 fell in the range of 0.1 to 1 µM in assay [6], 0.001 to 0.1 µM in assay [9] and 0.001 to 0.1 µM in [10].
`O=C1CCCN1c1cc(N2CCOCC2)cn2c(=O)c(O)c(-c3ncc(Cc4ccc(F)cc4)s3)nc12` [Example 97, 2-[5-(4-Fluoro-benzyl)-thiazol-2-yl]-3-hydroxy-7-morpholin-4-yl-9-(2-oxo-pyrrolidin-1-yl)-pyrido[1,2-a]pyrimidin-4-one]: the EC50 in [6] was 0.1 to 1 µM.
On to `O=c1c(O)c(-c2ncc(Cc3ccc(Cl)c(Cl)c3)s2)nc2c(N3CCCS3(=O)=O)cc(N3CCOCC3)cn12` [Example 108, 2-[5-(3,4-Dichloro-benzyl)-thiazol-2-yl]-9-(1,1-dioxo-116-isothiazolidin-2-yl)-3-hydroxy-7-morpholin-4-yl-pyrido[1,2-a]pyrimidin-4-one], for which the EC50 fell in the range of 0.1 to 1 µM in [6] and 0.001 to 0.1 µM in assay [9].
Consider `CN1CCN(c2cc(N3CCOCC3)cn3c(=O)c(O)c(-c4ncc(Cc5ccc(F)cc5)[nH]4)nc23)C1=O` [Example 109, 5-(4-Fluoro-benzyl)-2-[3-hydroxy-9-(3-methyl-2-oxo-imidazolidin-1-yl)-7-morpholin-4-yl-4-oxo-4H-pyrido[1,2-a]pyrimidin-2-yl]-1H-imidazol-1-ium; chloride], for which the results for the EC50 in [6], in assay [9] and in assay [10] were 0.1 to 1 µM, 0.001 to 0.1 µM and 0.1 to 1 µM, respectively.
